Test [1] deals with Staphylococcus aureus. Description: Bactericidal activity against Staphylococcus aureus ATCC 29213 assessed as inhibition of bacterial growth at 8 times MIC measured within 0.5 to 1 hrs by time kill assay. Conditions: time 0.5-1 hrs. The class given is functional, organism-based.
Test [2] has as its system Staphylococcus aureus. Description: Bactericidal activity against methicillin-resistant Staphylococcus aureus clinical isolate MRSA-16 assessed as inhibition of bacterial growth at 8 times MIC measured within 0.5 to 1 hrs by time kill assay. The class given is functional, organism-based. Conditions: time 0.5-1 hrs.
Test [3] deals with Staphylococcus aureus. Description: Antibacterial activity against methicillin-resistant Staphylococcus aureus infected in Kunming mouse skin infection model assessed as effect on skin abscesses in dorsal surface at 4 mg/kg,sc measured after 24 hrs. The class given is functional, organism-based.
Test [4] deals with Staphylococcus aureus. The test is described as follows: Antibacterial activity against methicillin-resistant Staphylococcus aureus infected in Kunming mouse skin infection model assessed as effect on skin abscesses at 4 mg/kg,sc measured after 24 hrs. The class given is functional, organism-based.
The subject of test [5] is Staphylococcus aureus. The test is described as follows: Antibacterial activity against methicillin-resistant Staphylococcus aureus infected in Kunming mouse skin infection model assessed as reduction in inflammatory cells at 4 mg/kg,sc measured after 24 hrs. The class given is functional, organism-based.
The test system of test [6] is Staphylococcus aureus. The test is described as follows: Antibacterial activity against methicillin-resistant Staphylococcus aureus infected in Kunming mouse skin infection model assessed as reduction in number of bacterial cells at 4 mg/kg,sc measured after 24 hrs. The class given is functional, organism-based.
In test [7] the test system is Staphylococcus aureus. The test is described as follows: Antibacterial activity against methicillin-resistant Staphylococcus aureus infected in Kunming mouse skin infection model assessed as decrease in bacterial load at 4 mg/kg,sc measured after 24 hrs relative to control. The class given is functional. More on the design: scale not given: the % may be the effect or the level left.

The test system of test [8] is Staphylococcus aureus. The test is described as follows: Antibacterial activity against methicillin-resistant Staphylococcus aureus infected in Kunming mouse skin infection model assessed as decrease in bacterial load at 4 mg/kg,sc measured after 24 hrs. The class given is functional.
In test [9] the test system is Staphylococcus aureus. The test is described as follows: Antibacterial activity against Staphylococcus aureus ATCC 29213 at sub-inhibitory concentration measured after 4 passages for 16 to 18 hrs. The conditions noted are these: time 16-18 hrs. The class given is functional, organism-based.
In test [10] the test system is Staphylococcus aureus. The test is described as follows: Drug resistance, ratio of MIC for Staphylococcus aureus ATCC 29213 after 15 passages exposure to MIC for Staphylococcus aureus ATCC 29213 during first exposure. The class given is functional.

The results in this text go back to ChEMBL document CHEMBL5505992, “Novel membrane-targeting isoxanthohumol-amine conjugates for combating methicillin-resistant Staphylococcus aureus (MRSA) infections” (Eur J Med Chem, 2024).

The source made the active and inactive calls. The calls are words filed in the database; no cut-off is given here.

`CN[C@H](CC(C)C)C(=O)N[C@H]1C(=O)N[C@@H](CC(N)=O)C(=O)N[C@H]2C(=O)N[C@H]3C(=O)N[C@H](C(=O)N[C@H](C(=O)O)c4cc(O)cc(O)c4-c4cc3ccc4O)[C@H](O)c3ccc(c(Cl)c3)Oc3cc2cc(c3O[C@@H]2O[C@H](CO)[C@@H](O)[C@H](O)[C@H]2O[C@H]2C[C@](C)(N)[C@H](O)[C@H](C)O2)Oc2ccc(cc2Cl)[C@H]1O` [VANCOMYCIN]: the outcome in the test on Staphylococcus aureus [1], with Staphylococcus aureus [2], in the test on Staphylococcus aureus [3], in the test on Staphylococcus aureus [4], with Staphylococcus aureus [5] and with Staphylococcus aureus [6] was Active. Further, the Activity is 97.67% in the test on Staphylococcus aureus [7] and 1.6 log10CFU/g in the test with Staphylococcus aureus [8].

Turning to `CCn1cc(C(=O)O)c(=O)c2cc(F)c(N3CCNCC3)cc21` [NORFLOXACIN], the outcome with Staphylococcus aureus [9] was Active. Besides, in the test with Staphylococcus aureus [10], the “fold change (FC)” value worked out at 128.
